Data taken from PubChem BioAssay AID270 (DTP/NCI, 2004).
Several values for one entry are separate records, joined by “and”; a condition that tells them apart may be missing. Equal values may be shown once. Records with an inconclusive call do not appear.

Tested on: BDF1 mice, s.c. Lewis lung carcinoma, T/C %
Assay: NCI In Vivo Anticancer Drug Screen. Data for tumor model Lewis Lung Carcinoma (subcutaneous) in B6D2F1 (BDF1) mice
In short: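 The value reflects a ratio in which the treated cohort's survival time or tumour size is compared against mice receiving only vehicle.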

[1] = endpoint: median survival time, dose: 12.5 mg/kg/injection, schedule: Q01DX009 (ip), vehicle: Klucel (hydroxypropylcellulose) (HPC), higher = longer survival
[2] = endpoint: median survival time, dose: 25.0 mg/kg/injection, schedule: Q01DX009 (ip), vehicle: Klucel (hydroxypropylcellulose) (HPC), higher = longer survival

N=[N+]=CC(=O)CCC(NC(=O)C(CCC(=O)C=[N+]=N)NC(=O)CCC(N)C(=O)O)C(=O)O (stereo not given)
T/C (endpoint: mean tumor weight, dose: 0.06 mg/kg/injection, schedule: Q01DX011 (ip), vehicle: water, higher = larger tumour): 103 % of control | T/C (endpoint: mean tumor weight, dose: 0.12 mg/kg/injection, schedule: Q01DX011 (ip), vehicle: water, higher = larger tumour): 34 % of control | T/C (endpoint: mean tumor weight, dose: 0.25 mg/kg/injection, schedule: Q01DX011 (ip), vehicle: water, higher = larger tumour): 17 % of control | T/C (endpoint: median survival time, dose: 0.1 mg/kg/injection, schedule: Q01DX011 (ip), vehicle: other, higher = longer survival): 120 % of control | T/C (endpoint: median survival time, dose: 0.2 mg/kg/injection, schedule: Q01DX011 (ip), vehicle: other, higher = longer survival): 89 % of control | T/C (endpoint: median survival time, dose: 0.4 mg/kg/injection, schedule: Q01DX011 (ip), vehicle: other, higher = longer survival): 116 % of control | T/C (endpoint: median survival time, dose: 0.8 mg/kg/injection, schedule: Q01DX011 (ip), vehicle: other, higher = longer survival): 107 % of control | T/C (endpoint: median survival time, dose: 1.6 mg/kg/injection, schedule: Q01DX011 (ip), vehicle: other, higher = longer survival): 101 % of control

O=[N+]([O-])c1ccccc1CSc1ncnc2nc[nH]c12
T/C (endpoint: mean tumor weight, dose: 15.6 mg/kg/injection, schedule: Q01DX011 (ip), vehicle: other, higher = larger tumour): 38 % of control | T/C (endpoint: mean tumor weight, dose: 31.3 mg/kg/injection, schedule: Q01DX011 (ip), vehicle: other, higher = larger tumour): 86 % of control | T/C (endpoint: mean tumor weight, dose: 62.5 mg/kg/injection, schedule: Q01DX011 (ip), vehicle: other, higher = larger tumour): 82 % of control | T/C (endpoint: mean tumor weight, dose: 125.0 mg/kg/injection, schedule: Q01DX011 (ip), vehicle: other, higher = larger tumour): 41 % of control

CCN(CC)CC(C)Nc1ccc(C)c2sc3ccccc3c(=O)c12 (stereo not given)
T/C (endpoint: mean tumor weight, dose: 10.0 mg/kg/injection, schedule: Q01DX011 (ip), vehicle: other, higher = larger tumour): 104 % of control | T/C (endpoint: mean tumor weight, dose: 40.0 mg/kg/injection, schedule: Q01DX011 (ip), vehicle: other, higher = larger tumour): 68 % of control | T/C (endpoint: mean tumor weight, dose: 160.0 mg/kg/injection, schedule: Q01DX011 (ip), vehicle: other, higher = larger tumour): 30 % of control

COc1cc(C=Nc2ccc(-c3nc(Cc4ccccc4)sc3C)cc2)ccc1N(CCCl)CCCl
T/C [1]: 90 % of control | T/C [2]: 110 % of control

C1=CC2(OCCO2)C2CC=CC3(OCCO3)C2C1 (stereo not given)
T/C (endpoint: median survival time, dose: 6.25 mg/kg/injection, schedule: Q01DX009 (ip), vehicle: Klucel (hydroxypropylcellulose) (HPC), higher = longer survival): 88 % of control | T/C [1]: 100 % of control | T/C [2]: 95 % of control and 97 % of control | T/C (endpoint: median survival time, dose: 50.0 mg/kg/injection, schedule: Q01DX009 (ip), vehicle: Klucel (hydroxypropylcellulose) (HPC), higher = longer survival): 93 % of control | T/C (endpoint: median survival time, dose: 100.0 mg/kg/injection, schedule: Q01DX009 (ip), vehicle: Klucel (hydroxypropylcellulose) (HPC), higher = longer survival): 106 % of control

S=C([S][Sn]([c]1ccccc1)([c]1ccccc1)[c]1ccccc1)N1CCCCC1
T/C (endpoint: median survival time, dose: 3.12 mg/kg/injection, schedule: Q01DX009 (ip), vehicle: saline with Tween-80, higher = longer survival): 102 % of control | T/C (endpoint: median survival time, dose: 12.5 mg/kg/injection, schedule: Q01DX009 (ip), vehicle: saline with Tween-80, higher = longer survival): 94 % of control | T/C (endpoint: median survival time, dose: 25.0 mg/kg/injection, schedule: Q01DX009 (ip), vehicle: saline with Tween-80, higher = longer survival): 89 % of control

CC1=C/C(O)CC(=O)Cc2nc(co2)C(=O)N2CCC=C2C(=O)OC(C(C)C)C(C)/C=C\C(=O)NC/C=C\1 (stereo not given)
T/C (endpoint: median survival time, dose: 0.5 micrograms/kg/injection, schedule: Q01DX009 (ip), vehicle: saline, higher = longer survival): 103 % of control | T/C (endpoint: median survival time, dose: 1.0 micrograms/kg/injection, schedule: Q01DX009 (ip), vehicle: saline, higher = longer survival): 94 % of control | T/C (endpoint: median survival time, dose: 2.0 micrograms/kg/injection, schedule: Q01DX009 (ip), vehicle: saline, higher = longer survival): 98 % of control | T/C (endpoint: median survival time, dose: 4.0 micrograms/kg/injection, schedule: Q01DX009 (ip), vehicle: saline, higher = longer survival): 99 % of control

CCCCCCC(=O)O[C@H]1CC[C@H]2[C@@H]3CCC4=CC(=O)CC[C@]4(C)[C@H]3CC[C@]12C
T/C (endpoint: mean tumor weight (est.), dose: 10.0 mg/kg/injection, schedule: Q01DX009 (ip), vehicle: water, higher = larger tumour): 73 % of control | T/C (endpoint: mean tumor weight (est.), dose: 20.0 mg/kg/injection, schedule: Q01DX009 (ip), vehicle: water, higher = larger tumour): 111 % of control | T/C (endpoint: mean tumor weight (est.), dose: 40.0 mg/kg/injection, schedule: Q01DX009 (ip), vehicle: water, higher = larger tumour): 52 % of control | T/C (endpoint: mean tumor weight (est.), dose: 80.0 mg/kg/injection, schedule: Q01DX009 (ip), vehicle: water, higher = larger tumour): 93 % of control | T/C (endpoint: median survival time, dose: 10.0 mg/kg/injection, schedule: Q01DX009 (ip), vehicle: water, higher = longer survival): 115 % of control | T/C (endpoint: median survival time, dose: 80.0 mg/kg/injection, schedule: Q01DX009 (ip), vehicle: water, higher = longer survival): 101 % of control

CN(C)c1ccc(-c2cc[n+](C)cc2)cc1
T/C (endpoint: median survival time, dose: 0.5 mg/kg/injection, schedule: Q01DX009 (ip), vehicle: saline, higher = longer survival): 103 % of control | T/C (endpoint: median survival time, dose: 1.0 mg/kg/injection, schedule: Q01DX009 (ip), vehicle: saline, higher = longer survival): 114 % of control | T/C (endpoint: median survival time, dose: 2.0 mg/kg/injection, schedule: Q01DX009 (ip), vehicle: saline, higher = longer survival): 119 % of control | T/C (endpoint: median survival time, dose: 3.0 mg/kg/injection, schedule: Q01DX009 (ip), vehicle: saline, higher = longer survival): 106 % of control | T/C (endpoint: median survival time, dose: 6.0 mg/kg/injection, schedule: Q01DX009 (ip), vehicle: saline, higher = longer survival): 103 % of control
